{
  "source": "paper PMC11747885",
  "about": "“Potent inhibitors of the human RNA ligase Rlig1 highlights its role in RNA integrity maintenance under oxidative cellular stress” (Chemical Science, 2025)",
  "key": {"[1]": {"target": "ATPase family AAA domain-containing protein 2 (ATAD2)", "design": "method as in MedChemExpress", "conditions": "ref MedChemExpress; cited from earlier work"}, "[2]": {"conditions": "ref MedChemExpress, cited from earlier work"}, "[3]": {"target": "T1, Rlig1-AMP (Homo sapiens, UniProt Q8N999)", "T1 construct": "made in house; host or cells: E. coli BL21 (DE3), pET15b-Rlig1", "T1 sequence (Q8N999 whole entry)": "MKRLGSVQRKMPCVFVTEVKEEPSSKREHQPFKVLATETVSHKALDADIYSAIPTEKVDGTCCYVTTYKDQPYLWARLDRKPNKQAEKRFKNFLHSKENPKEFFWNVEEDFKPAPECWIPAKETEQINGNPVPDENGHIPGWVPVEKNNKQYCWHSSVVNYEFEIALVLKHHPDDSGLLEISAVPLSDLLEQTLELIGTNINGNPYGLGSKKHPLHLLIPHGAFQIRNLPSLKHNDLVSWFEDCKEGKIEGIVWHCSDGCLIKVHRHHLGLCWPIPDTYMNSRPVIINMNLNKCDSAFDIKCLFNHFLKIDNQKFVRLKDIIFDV", "assay": "FRET-based high-throughput screening of inhibitors for Rlig1-AMP", "format": "biochemical", "conditions": "for 1-D Distance: difference of raw data w/o and w enzyme; for Raw data [w Enyzm]: with enzyme; for Raw data [w/o Enzym]: without enzyme; for 1-D Distance.npi: MedChemExpress library"}, "[4]": {"target": "LTB4 receptor", "design": "method as in MedChemExpress [1]", "conditions": "isolated human neutrophil cell membranes; ref MedChemExpress [1]; cited from earlier work"}, "[5]": {"design": "method as in MedChemExpress", "conditions": "OGTT, oral 1 h prior to dextrose challenge, ref MedChemExpress, cited from earlier work"}, "[6]": {"test_system": "IKr, Cav1.2, and Nav1.5", "design": "method as in MedChemExpress", "conditions": "ion channel activity; ref MedChemExpress; cited from earlier work"}, "[7]": {"test_system": "all proteases tested", "design": "method as in MedChemExpress", "conditions": "selectivity; ref MedChemExpress; cited from earlier work"}, "[8]": {"test_system": "DPP-4", "design": "method as in MedChemExpress [1]", "conditions": "ref MedChemExpress [1]; cited from earlier work"}, "[9]": {"target": "168 radioligand binding or enzymatic assays", "design": "method as in MedChemExpress", "conditions": "MDS Pharma, ref MedChemExpress, read-out: IC50 in all counterscreen assays; cited from earlier work"}, "[10]": {"conditions": "in DMSO; ref MedChemExpress; cited from earlier work"}, "[11]": {"test_system": "EBOV Zaire", "conditions": "ref MedChemExpress [1][2]; read-out: IC50 infectious EBOV Zaire; cited from earlier work"}, "[12]": {"test_system": "Marburg (MARV)", "conditions": "ref MedChemExpress [1][2]; cited from earlier work"}},
  "note": "Where “and” joins values, the source holds several entries; their conditions need not be identical. Equal values may be shown once. Read-outs that look alike come from different tables or passages of the source.",
  "data": [
    {"smiles": "COc1cc(Cl)c(C(=O)N[C@@H](CN[C@H]2CC[C@@H](N)CC2)Cc2ccc(C#N)cc2)cc1-c1ccc(CN[C@H](C)c2ccc(C)cc2)o1", "note": "[BAY-850]", "values": [
      {"measurement": "IC50", "setting": "[1]", "value": 166, "unit": "nM"},
      {"measurement": "solubility", "setting": "[2]; DMSO", "value": "62.5 mg/mL and 95.53 mM"},
      {"measurement": "solubility", "setting": "[2]; H2O", "value": "< 0.1", "unit": "mg/mL"},
      {"measurement": "1-D Distance", "setting": "[3]; HTS hits", "value": 2218},
      {"measurement": "Raw data [w Enyzm]", "setting": "[3]; HTS hits", "value": 10576},
      {"measurement": "Raw data [w/o Enzym]", "setting": "[3]; HTS hits", "value": 12794}
    ]},
    {"smiles": "CC(C)(c1ccc(O)cc1)c1ccc(OCc2cccc(COc3ccc(C(=N)N)cc3)c2)cc1.Cl", "note": "[BIIL-260 (hydrochloride)]", "values": [
      {"measurement": "Ki", "setting": "[4]", "value": 1.7, "unit": "nM"},
      {"measurement": "1-D Distance.npi", "setting": "[3]; sheet HTS hits", "value": 102.737},
      {"measurement": "1-D Distance", "setting": "[3]; sheet HTS hits", "value": 216},
      {"measurement": "Raw data [w Enyzm]", "setting": "[3]; sheet HTS hits", "value": 4623},
      {"measurement": "Raw data [w/o Enzym]", "setting": "[3]; sheet HTS hits", "value": 4407}
    ]},
    {"smiles": "CS(=O)(=O)n1cc2c(n1)CN([C@H]1CO[C@H](c3cc(F)ccc3F)[C@@H](N)C1)C2", "note": "[Omarigliptin]", "values": [
      {"measurement": "reduction in glucose AUC", "setting": "[5]; 0.01 mg/kg", "value": 7, "unit": "%"},
      {"measurement": "reduction in glucose AUC", "setting": "[5]; 0.3 mg/kg", "value": 51, "unit": "%"},
      {"measurement": "IC50", "setting": "[6]", "value": "> 30000", "unit": "nM"},
      {"measurement": "IC50", "setting": "[7]", "value": "> 67000", "unit": "nM"},
      {"measurement": "IC50", "setting": "[8]", "value": 1.6, "unit": "nM"},
      {"measurement": "IC50", "setting": "[9]", "value": "> 10000", "unit": "nM"},
      {"measurement": "solubility, DMSO", "setting": "[10]", "value": "DMSO : 50 mg/mL (125.49 mM; Need ultrasonic)"},
      {"measurement": "1-D Distance", "setting": "[3]; sheet HTS hits", "value": 1732},
      {"measurement": "Raw data [w Enyzm]", "setting": "[3]; sheet HTS hits", "value": 9138},
      {"measurement": "Raw data [w/o Enzym]", "setting": "[3]; sheet HTS hits", "value": 10870}
    ]},
    {"smiles": "CN(C)CCOc1ccc(/C(=C(/CCCl)c2ccccc2)c2ccccc2)cc1.O=C(O)CC(O)(CC(=O)O)C(=O)O", "note": "[Toremifene (citrate)]", "values": [
      {"measurement": "IC50", "setting": "[11]", "value": 70, "unit": "nM"},
      {"measurement": "IC50", "setting": "[12]", "value": 2600, "unit": "nM"},
      {"measurement": "1-D Distance.npi", "setting": "[3]; sheet HTS hits", "value": 77.3877},
      {"measurement": "1-D Distance", "setting": "[3]; sheet HTS hits", "value": 1366},
      {"measurement": "Raw data [w Enyzm]", "setting": "[3]; sheet HTS hits", "value": 9443}
    ]}
  ]
}
